Data published in patent US20230373940A1, “CARBOXYLIC DIARYLTHIAZEPINEAMINES AND USES THEREOF” (Kures, Inc., priority 2020, published 2023).
Counter-ions that a name gives are not always drawn.

How the values were obtained:
[1] = biological target: T1, human mu opioid receptor (MOR) (Homo sapiens, UniProt P35372); assay: BRET assay measuring G protein activation, agonist activity at human MOR (transfected HEK-293T cells); type: cell-based; conditions: for MOR potency relative to analogs lacking substitution at position 2: dihalo-substituted core
T1 construct: expressed in transfected cells; host or cells: HEK-293T
Description: (§1) The diarylthiazepinamine carboxylic acids (9) were tested for agonist activity at the human mu opioid receptor (MOR) and delta opioid receptor (DOR) using bioluminescence resonance energy transfer (BRET) assays measuring G protein activation as previously described (Table 1) (Rives, M.-L. et al. 2012; Negri, A. et al. 2013).
(§2) Transfection. Human MOR cDNA was transfected alongside […] with RLuc8 inserted at position 91 (GαoB-RLuc8), Gβ1 (β1), and Gγ2 fused to the full-length mVenus at its N terminus (mVenus-γ2) into HEK-293T cells (5×10^6 cells/plate) in 10-cm dishes using PEI (Polysciences Inc.; Warrington, PA) in a 1:1 ratio diluted in Opti-MEM (Life Technologies Corp.; Grand Island, NY) to assay for G protein activation as described previously (Rives, M.-L. et al. 2012; Negri, A. et al. 2013). Cells were maintained in Dulbecco's Modified Eagle Medium (high glucose #11965; Life Technologies) supplemented with 10% FBS (Premium Select, Atlanta Biologicals; Atlanta, GA) and 100 U/mL penicillin and 100 μg/mL streptomycin (#15140, Life Technologies). After 24 hours the media was changed, and the experiment was performed 24 hours later (48 hours after transfection).
(§3) BRET. Transfected cells were dissociated and re-suspended in phosphate-buffered saline (PBS). Approximately 200,000 cells/well were added to a black-framed, white well 96-well plate (#60050; Perkin Elmer; Waltham, MA). The microplate was centrifuged and the cells were re-suspended in PBS. Then 5 μM of the luciferase substrate coelenterazine H was added to each well for 5 minutes. Following coelenterazine H addition, ligands were added and the BRET signal was measured at 5 minutes on a PHERAstar FS plate reader. Quantification of the BRET signal required calculating the ratio of the light emitted by the energy acceptor, mVenus (510-540 nm), over the light emitted by the energy donor, RLuc8 (485 nm). […] Dose response curves were fit using a three-parameter logistics equation in GraphPad Prism 6.
The additional diarylthiazepinamine carboxylic acids (9i, 9j, 9k, and 91) were tested for agonist activity at the human mu opioid receptor (MOR) using bioluminescence resonance energy transfer (BRET) assays measuring G protein activation (Table 2) as previously described (Rives, M.-L. et al. 2012; Negri, A. et al. 2013; Example 2 of the present application).

[2] = Solubility Determination (Method A), distilled water, stirred 24 h; type: physicochemical
Description: (§4) Solubility Determination (Method A). A quantity of the appropriate compound sufficient to saturate the resulting solution was added to distilled water (0.50 mL) and the mixture was stirred vigorously for 24 h at room temperature (20° C.). The mixture was then centrifuged for 3 min. at 21,000×g and the stir bar was carefully removed. The mixture was then centrifuged again for 5 min. at 21,000×g and the supernatant was carefully removed by syringe and passed through a […] syringe filter. An aliquot (300 μL) of the filtered supernatant was concentrated in vacuo and the mass of the residual solids determined in order to calculate the solubility.

[3] = for Solubility, 100 mM HCl, pH 1 (mg/mL): pH 1, 25° C.
Description: Solubility Determination. Test compounds (4 mg) were added to 200 μL of one of the tested aqueous solutions (hereinafter—buffer): 100 mM aqueous HCl (pH 1) or 100 mM Na-phosphate buffer (pH 7). The obtained suspensions/solutions with the theoretical concentration of 20 mg/mL were further allowed to equilibrate at 25° C. on a thermostatic orbital shaker for 24 hours and then centrifuged at 6000 rpm for 4 minutes and filtered through HTS filter plates using a vacuum manifold. In parallel, compound dilutions in 50% acetonitrile/HCl and 30% acetonitrile/Na-phosphate buffer mixes were prepared to theoretical concentrations of 0 mg/mL (blank), 0.1 mg/mL, 0.2 mg/mL, and 0.4 mg/mL in duplicates to generate calibration curves falling within the optimum UV absorption range. The filtrates of test compounds were diluted 100-fold with acetonitrile-buffer mixtures before measuring. The filtered supernatant test samples were transferred to 96-well plates and measured for absorbance in the 200-550 nm range with 5 nm step increment. The concentrations of compounds in supernatants were calculated using the measured absorbance and the previously determined calibration curve. Proper absorbance wavelengths for calculations were selected for each compound manually based on absorbance maxima (absolute absorbance unit values for the minimum and maximum concentration points within 0-2.5 OD range).

male C57BL/6 mice = assay: Analgesic activity in hot plate assay; type: in vivo, mouse; conditions: for ED50: Mus musculus, sc, hot plate 55° C., male C57BL/6 mice; for Analgesic activity in the mouse hot plate assay: much higher potency than tianeptine
Description: Analgesic Activity in Hot Plate Assay. Male C57BL/6 mice were timed for latency to jump on a hot-plate apparatus set to 55° C., using a 30 s cutoff to prevent tissue damage. Following a baseline test, animals were injected subcutaneously (s.c.) with escalating doses of drug and tested at […] (time of maximal effect). Dose-response curves were fit via nonlinear regression using GraphPad Prism (La Jolla, CA).

[4] = Solubility Determination (Method B), distilled water, orbital shaker 2 h; type: physicochemical; conditions: neutral unbuffered water, vs iodotianeptine
Description: as §4, with “B).” for “A).”, “agitated on an orbital shaker” for “was stirred vigorously”, “2” for “24”, “centrifuged” for “centrifuged for 3 min. at 21,000×g and the stir bar was carefully removed. The mixture was then centrifuged again”

MOR = MOR (Homo sapiens, UniProt P35372); conditions: Gassaway, M. M. et al. 2014; cited from earlier work
DOR = DOR (Homo sapiens, UniProt P41143); conditions: Gassaway, M. M. et al. 2014; cited from earlier work
[5] = biological target: T2, human delta opioid receptor (DOR) (Homo sapiens, UniProt P41143); assay: BRET assay measuring G protein activation, agonist activity at human DOR; type: cell-based
T2 construct: expressed in transfected cells
Description: as §1, §2, §3

[6] = average of 2 independent trials

T2 sequence (P41143 whole entry): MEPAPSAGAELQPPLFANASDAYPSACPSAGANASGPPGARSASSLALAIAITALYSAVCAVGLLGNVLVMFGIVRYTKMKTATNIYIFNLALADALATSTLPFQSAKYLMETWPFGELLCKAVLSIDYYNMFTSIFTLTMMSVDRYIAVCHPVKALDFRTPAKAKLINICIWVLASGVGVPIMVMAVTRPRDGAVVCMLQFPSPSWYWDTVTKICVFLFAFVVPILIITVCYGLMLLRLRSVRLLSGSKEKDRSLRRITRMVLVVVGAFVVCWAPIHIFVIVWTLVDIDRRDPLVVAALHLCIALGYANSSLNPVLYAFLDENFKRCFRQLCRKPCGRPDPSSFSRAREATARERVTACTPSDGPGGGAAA
T1 sequence (P35372 whole entry): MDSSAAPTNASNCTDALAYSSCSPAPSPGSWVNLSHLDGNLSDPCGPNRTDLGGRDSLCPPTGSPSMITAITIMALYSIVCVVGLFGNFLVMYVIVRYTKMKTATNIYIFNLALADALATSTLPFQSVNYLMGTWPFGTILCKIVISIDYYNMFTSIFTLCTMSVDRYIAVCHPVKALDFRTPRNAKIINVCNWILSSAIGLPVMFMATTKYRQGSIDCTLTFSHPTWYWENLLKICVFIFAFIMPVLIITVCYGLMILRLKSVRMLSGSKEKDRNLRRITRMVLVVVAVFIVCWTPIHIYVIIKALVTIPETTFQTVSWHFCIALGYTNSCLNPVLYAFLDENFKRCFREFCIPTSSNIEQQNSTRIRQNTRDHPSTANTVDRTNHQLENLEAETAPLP
Chain of DOR (P41143 whole entry): as the sequence (P41143 whole entry) above
Chain of MOR (P35372 whole entry): as the sequence (P35372 whole entry) above

CN1c2ccccc2C(NCCCCCCC(=O)O)c2cc(F)c(Br)cc2S1(=O)=O.Cl (stereo not drawn) [Compound 9b, 7-((3-Bromo-2-fluoro-6-methyl-5,5-dioxido-6,11-dihydrodibenzo[c,f][1,2]thiazopin-11-yl)amino) heptanoic acid hydrochloride salt]
MOR potency relative to analogs lacking substitution at position 2 [1]: equipotent or more potent | Fold more soluble than analogous monohalo counterpart ([2]; neutral unbuffered water, vs bromotianeptine): 2-3 fold | Aqueous Solubility (mg/mL @ 20° C.) ([2]; neutral water, room temperature (20° C.), Method A, average of 2 independent trials): 9.8 mg/mL | Solubility, 100 mM HCl, pH 1 (mg/mL) [3, 6]: 1.1 mg/mL | Solubility, 100 mM Na phosphate buffer, pH 7 (mg/mL) ([3]; pH 7, 25° C., average of 2 independent trials): 0.84 mg/mL | ED50 (male C57BL/6 mice): 5.1 mg/kg | Analgesic activity in the mouse hot plate assay (male C57BL/6 mice): potent analgesics

CN1c2ccccc2C(NCCCCCCC(=O)O)c2ccc(I)cc2S1(=O)=O.Cl (stereo not drawn) [iodotianeptine, reference compound]
Solubility, 100 mM HCl, pH 1 (mg/mL) [3, 6]: <0.1 mg/mL

CN1c2ccccc2C(NCCCCC(=O)O)c2cc(F)c(Br)cc2S1(=O)=O.Cl (stereo not drawn) [Compound 91, 5-((3-bromo-2-fluoro-6-methyl-5,5-dioxido-6,11-dihydrodibenzo[c,f][1,2]thiazepin-11-yl)amino) pentanoic acid hydrochloride salt]
MOR potency relative to analogs lacking substitution at position 2 [1]: equipotent or more potent

CN1c2ccccc2C(NCCCCCCC(=O)O)c2cc(F)c(Cl)cc2S1(=O)=O.Cl (stereo not drawn) [Compound 9j, 7-((3-chloro-2-fluoro-6-methyl-5,5-dioxido-6,11-dihydrodibenzo[c,f][1,2]thiazopin-11-yl)amino) heptanoic acid hydrochloride salt]
MOR potency relative to analogs lacking substitution at position 2 [1]: equipotent or more potent | Fold more soluble than monohalo counterpart at pH 1 ([3]; pH 1): 8 fold

CN1c2ccccc2C(NCCCCCCC(=O)O)c2cc(F)c(I)cc2S1(=O)=O.Cl (stereo not drawn) [Compound 9k, 7-((2-fluoro-3-iodo-6-methyl-5,5-dioxido-6,11-dihydrodibenzo[c,f][1,2]thiazopin-11-yl)amino)heptanoic acid hydrochloride salt]
MOR potency relative to analogs lacking substitution at position 2 [1]: equipotent or more potent | Fold more soluble than analogous monohalo counterpart [4]: 2-3 fold | ED50 (male C57BL/6 mice): 1.7 mg/kg | Analgesic activity in the mouse hot plate assay (male C57BL/6 mice): potent analgesics

CN1c2ccccc2C(NCCCCCCC(=O)O)c2ccc(Cl)cc2S1(=O)=O (stereo not drawn) [Tianeptine, tianeptine]
Agonist activity at the MOR (reported) (MOR): full agonist | Agonist activity at the DOR (reported) (DOR): low potency agonist activity

CCOC(=O)CCCCCCNC1c2ccccc2N(C)S(=O)(=O)c2cc(SC)ccc21 (stereo not drawn) [Ester Analog of 9c, Ethyl 7-((6-methyl-3-(methylthio)-5,5-dioxido-6,11-dihydrodibenzo[c,f][1,2]thiazepin-11-yl)amino)heptanoate]
Human DOR agonist type (partial / full agonist) [5]: partial agonist

CN1c2ccccc2C(NCCCCCCC(=O)[O-])c2ccc(Cl)cc2S1(=O)=O.[Na+] (stereo not drawn) [Tianeptine (Na salt), Tianeptine, reference compound]
ED50 (male C57BL/6 mice): 15 mg/kg

CSc1ccc2c(c1)S(=O)(=O)N(C)c1ccccc1C2NCCCCCCC(=O)O (stereo not drawn) [Compound 9c, 7-((6-Methyl-3-(methylthio)-5,5-dioxido-6,11-dihydrodibenzo[c,f][1,2]thiazopin-11-yl)amino)heptanoic acid]
Human DOR agonist type (partial / full agonist) [5]: partial agonist | DOR Emax relative to the control agonist DPDPE ([5]; FIG. 1): lesser Emax than the control agonist DPDPE

CN1c2ccccc2C(NCCCCCCCC(=O)O)c2ccc(I)cc2S1(=O)=O (racemic) [Compound 9e, 8-((3-Iodo-6-methyl-5,5-dioxido-6,11-dihydrodibenzo[c,f][1,2]thiazopin-11-yl)amino) octanoic acid hydrochloride salt]
EC50 [1]: 24.2 ± 11 nM | EC50 [5]: 724 ± 99 nM

CN1c2ccccc2C(NCCCCCCC(=O)O)c2cc(Cl)c(Cl)cc2S1(=O)=O.Cl (stereo not drawn) [Compound 9i, 7-((2,3-dichloro-6-methyl-5,5-dioxido-6,11-dihydrodibenzo[c,f][1,2]thiazopin-11-yl)amino) heptanoic acid hydrochloride salt]
MOR potency relative to analogs lacking substitution at position 2 [1]: equipotent or more potent

CN1c2ccccc2C(NCCCCCCCCCC(=O)O)c2ccc(I)cc2S1(=O)=O (racemic) [Compound 9g, 10-((3-Iodo-6-methyl-5,5-dioxido-6,11-dihydrodibenzo[c,f][1,2]thiazopin-11-yl)amino)decanoic acid hydrochloride salt]
EC50 [1]: 26.6 ± 1.8 nM | EC50 [5]: 262 ± 25 nM

CN1c2ccccc2C(NCCCCCCC(=O)O)c2ccc(Br)cc2S1(=O)=O.Cl (stereo not drawn) [bromotianeptine, reference compound]
Solubility, 100 mM HCl, pH 1 (mg/mL) [3, 6]: <0.1 mg/mL
